Experimental data: ChEMBL document CHEMBL2046343, “'Click' synthesis of a triazole-based inhibitor of Met functions in cancer cells” (Bioorg Med Chem Lett, 2012)
The source made the active and inactive calls. The calls are words filed in the database; no cut-off is given here.

What was measured:
MDCK = assay: Cytotoxicity against MDCK cells at IC50; format: cell-based, Canis lupus familiaris; conditions: dog
[1] = (§1) Cytotoxicity against human GTL16 cells expressing MET assessed as inhibition of anchorage-independent cell growth treated every 3 days for 2 weeks by MTT assay; format: functional, cell-based; conditions: GTL 16
GTL 16 = assay: as §1; format: functional, cell-based
NCI-H1437 = assay: Cytotoxicity against human NCI-H1437 cells assessed as inhibition of anchorage-independent cell growth treated every 3 days for 2 weeks by MTT assay; format: functional, cell-based
[2] = target: Hepatocyte growth factor receptor (Canis lupus familiaris) (UniProt Q75ZY9); assay: Inhibition of HGF-induced Met phosphorylation at Tyr1234 and Tyr1235 in MDCK cells at 10 uM by immunoblotting; format: cell-based
Chain of Hepatocyte growth factor receptor (Canis lupus familiaris) (Q75ZY9 whole entry): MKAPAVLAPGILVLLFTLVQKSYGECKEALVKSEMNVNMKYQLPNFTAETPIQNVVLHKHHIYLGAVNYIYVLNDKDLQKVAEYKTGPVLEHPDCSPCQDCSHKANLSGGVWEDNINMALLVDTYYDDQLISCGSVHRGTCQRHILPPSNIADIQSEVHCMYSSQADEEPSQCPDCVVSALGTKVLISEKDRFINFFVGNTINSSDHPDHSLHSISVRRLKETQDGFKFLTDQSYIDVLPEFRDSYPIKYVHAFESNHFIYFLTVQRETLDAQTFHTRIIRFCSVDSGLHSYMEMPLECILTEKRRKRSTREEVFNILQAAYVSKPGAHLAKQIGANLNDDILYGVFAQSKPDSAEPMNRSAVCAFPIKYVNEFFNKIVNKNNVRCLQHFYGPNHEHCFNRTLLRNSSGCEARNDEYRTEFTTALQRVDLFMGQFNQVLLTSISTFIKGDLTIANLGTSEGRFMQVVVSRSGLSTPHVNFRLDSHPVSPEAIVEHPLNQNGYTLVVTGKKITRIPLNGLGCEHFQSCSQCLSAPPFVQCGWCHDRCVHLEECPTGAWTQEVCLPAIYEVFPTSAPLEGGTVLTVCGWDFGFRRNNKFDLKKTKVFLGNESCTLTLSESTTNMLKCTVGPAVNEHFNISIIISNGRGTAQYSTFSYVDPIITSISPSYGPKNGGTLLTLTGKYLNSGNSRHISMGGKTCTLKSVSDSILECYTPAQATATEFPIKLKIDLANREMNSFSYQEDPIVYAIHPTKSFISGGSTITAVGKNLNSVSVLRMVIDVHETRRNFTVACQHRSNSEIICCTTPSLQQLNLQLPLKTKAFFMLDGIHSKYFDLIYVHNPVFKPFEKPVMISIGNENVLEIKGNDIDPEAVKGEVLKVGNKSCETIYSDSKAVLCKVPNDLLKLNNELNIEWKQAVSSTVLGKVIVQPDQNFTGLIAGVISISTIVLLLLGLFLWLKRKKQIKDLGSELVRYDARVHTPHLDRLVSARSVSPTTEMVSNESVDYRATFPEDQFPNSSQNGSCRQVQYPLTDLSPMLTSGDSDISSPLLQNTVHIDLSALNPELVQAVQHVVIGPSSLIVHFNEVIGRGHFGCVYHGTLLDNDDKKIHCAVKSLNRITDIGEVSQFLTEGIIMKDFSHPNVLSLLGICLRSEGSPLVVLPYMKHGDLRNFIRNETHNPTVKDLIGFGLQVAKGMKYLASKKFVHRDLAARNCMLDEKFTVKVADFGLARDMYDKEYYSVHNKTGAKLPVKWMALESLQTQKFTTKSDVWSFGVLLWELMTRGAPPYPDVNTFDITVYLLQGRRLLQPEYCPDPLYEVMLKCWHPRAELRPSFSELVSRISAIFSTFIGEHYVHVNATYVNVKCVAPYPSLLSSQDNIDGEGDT

H1437 = assay: Inhibition of HGF-induced Met R988C mutant phosphorylation at Tyr1234 and Tyr1235 in human H1437 cells at 10 uM by immunoblotting

With O=C(Cc1cc(C(F)(F)F)cc(C(F)(F)F)c1)N[C@H](Cc1ccccc1)C(=O)Nc1ccc(-c2cn3c(n2)sc2ccccc23)cc1 the Activity (MDCK) was “Non-toxic” and the IC50 [1] was 1190 nM.
With O=C(Cc1cc(C(F)(F)F)cc(C(F)(F)F)c1)N[C@@H](Cc1ccccc1)C(=O)Nc1ccc(-c2cn3c(n2)sc2ccccc23)cc1 the Activity (MDCK) was “Non-toxic” and the IC50 [1] was 800 nM.
With O=C(Cc1cc(C(F)(F)F)cc(C(F)(F)F)c1)NC(Cc1ccccc1)c1cn(-c2ccc(-c3cn4c(n3)sc3ccccc34)cc2)nn1 (stereo not given) the Activity (MDCK) was “Non-toxic”, the IC50 [1] was 8500 nM and the “growth inhibition (GI)” value (GTL 16) was “Dose-dependent effect”. The “growth inhibition (GI)” value (NCI-H1437) was “Dose-dependent effect”, the inhibition [2] was “Active” and the inhibition (H1437) was “Active”.
